Data taken from US11608324B2, “Solid forms of fasoracetam” (The Children's Hospital of Philadelphia, priority 2018, dated 2023).

What was measured:
[1] = Hygroscopicity (statement); assay type: physicochemical
[2] = Thermogravimetric analysis (TGA), thermal stability; assay type: physicochemical
Procedure: TGA measurements were carried out on a METTLER TOLEDO TGA/SDTA 851e. Samples were placed in open aluminum oxide crucible. All experiments were performed under nitrogen flow.
A TGA plot can be found at FIG. 6. The sample was equilibrated at 30.0° C. for five minutes prior to ramping. A heating rate of 5° C. per minute was used from 30.0° C. to 350.0° C. No significant weight loss was observed until temperatures greater than 180° C. were recorded.

[3] = Solubility curve in ethyl acetate (Crystal16); assay type: physicochemical; conditions: FIG. 10
Text: FIG. 7 is the x-ray powder diffraction of the R-fasoracetam monohydrate Form I starting material used in this Example 1, and FIG. 8 is the corresponding DSC thermogram of that starting material. A solubility curve was constructed for the cocrystal in ethyl acetate with the results plotted in FIG. 10 (from the data collected in Example 1) using a Crystal16 device from Technobis Crystallization Systems. The samples were created from the cocrystal without adding any additional water or other constituents. The samples were heated at a rate of 1°/15 minutes.

[4] = test system: metabotropic glutamate receptor (mGluR), all classes; conditions: Hirouchi M, et al. (2000); WO2017/044491; cited from earlier work
[5] = subjects having a genetic alteration in an mGluR network gene; cited from earlier work

O=C1CC[C@H](C(=O)N2CCCCC2)N1 [R-fasoracetam anhydrate]
hygroscopicity [1]: hygroscopic

Nc1ccc(C(=O)O)cc1.O=C1CC[C@H](C(=O)N2CCCCC2)N1 [R-fasoracetam:PABA cocrystal]
thermal stability by TGA, stable up to ([2]; TGA, FIG. 6): about 200 °C | temperature until which no significant weight loss was observed (TGA) ([2]; heating rate 5° C. per minute from 30.0° C. to 350.0° C.): greater than 180 °C | solubility as compared with R-fasoracetam monohydrate Form I [3]: approximately three-fold lower

O=C1CC[C@H](C(=O)N2CCCCC2)N1 [fasoracetam]
activity against mGluRs in vitro [4]: nonselective activator against all classes of mGluRs | treatment outcome in ADHD [5]: successfully treated
